The record followed here is patent US12115209B2, “ROMO1-derived antimicrobial peptides including lysine substitution and variants thereof” (KOREA UNIVERSITY RESEARCH AND BUSINESS FOUNDATION, priority 2019, dated 2024).

What all share (format): cell-based
One data set deals with mouse red blood cells. On the procedure:
Red blood cells were diluted with PBS, centrifuged 3 times at 900 g for 10 minutes, and washed. 100 μl of the diluted red blood cell solution (10% v/v PBS) was dispensed into each well of a 96-well microplate, and KU-5878, KU-5878-K4, KU-5878-K4-D, melittin, magainin 2 or daptomycin was added to each well which was then filled with PBS to 200 μl, followed by reaction by incubation at 37° C. for 1 hour. Then, the supernatant of the reaction solution was separated, and the absorbance at a wavelength of 550 nm was measured using a spectrophotometer. As control, PBS and 0.1% Triton X-100 (Triton X-100) solution were used.
Based on the results of measurement of the absorbance, the degree of red blood cell destruction was calculated according to Equation 1 below, and the results of the calculation are shown in FIG. 6. % The intact RBC=100(%)−[(absorbance of peptide-treated red blood cell solution−absorbance of PBS-treated red blood cell solution)/(absorbance of Triton X-100-treated red blood cell solution−absorbance of PBS-treated red blood cell solution)×100(%)] [Equation 1]

Data set [1] has as its system Staphylococcus aureus (ATCC 29213). Nature of the data set: Minimum bactericidal concentration (MBC) assay. As to conditions: Tables 11-21, no unit printed. In outline:
(§1)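 Peptide, 0–300 μg/ml, + bacteria at 1×10^5 CFU/ml in 10 mM sodium phosphate/1% TSB, 1 h, 37° C. Spot onto TS agar, 37° C 18 h. MBC: lowest conc. w/o colony growth. Strains pre-grown in 3% TSB.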

Data set [2] deals with Human vascular endothelial cells (HUVECs). The experiment in a line: Toxicity to human vascular endothelial cells (MTT). The conditions noted are these: 0 μg/ml to 300 μg/ml. On the procedure:
PBS was used as a control.
The HUMEC medium was replaced with fresh medium, and KU-5878, melittin or magainin 2 were dispensed at various concentrations (0 μg/ml to 300 μg/ml). Then, each well was treated with 100 μl of MTT reagent and incubated at 37° C. for 2 hours. Then, the medium and the peptide were carefully removed so as not to separate the cells, and 100 μl of DMSO (dimethyl sulfoxide) was added to each well, and the absorbance at a wavelength of 570 nm was measured using a spectrophotometer. Relative cell viability was calculated as a percentage of the viability of untreated control cells.

Data set [3] relates to Pseudomonas aeruginosa (ATCC 27853). Nature of the data set: Minimum bactericidal concentration (MBC) assay. The conditions noted are these: Tables 11-21, no unit printed. The method, boiled down:
as §1

No end group written: not given here.

For the sequence KTMMQSGGTFGTFMAIGMGIR [KU-5878], the “hemolysis of red blood cells” value in the data set with mouse red blood cells is given as “little hemolysis even at a high concentration”. This sequence showed an MBC Staphylococcus aureus in data set [1] of 100 µg/mL. Also, the “toxicity to the HUVECs (relative cell viability, MTT)” value in data set [2] is “very low toxicity”. In data set [3], this sequence had an MBC Pseudomonas aeruginosa of 100 µg/mL.
